Results as given in EP3693362B1, “PARASITIC PLANT GERMINATION REGULATOR” (National University Corporation Tokai National Higher …, priority 2017, dated 2019).

Experiments:
Format in all cases: in vivo
Striga hermonthica = assay: Parasitic plant germination induction test (Striga hermonthica seeds); details: in the dark for 2 days; for Germination rate 0.1 nM: compound concentration 0.1 nM; for Germination rate 1 nM: compound concentration 1 nM; for Germination rate 10 nM: compound concentration 10 nM
Description: (§1) A parasitic plant germination induction test was conducted using the compounds synthesized in Example 1 as test compounds. The seeds of a parasitic plant (Striga hermonthica, Orobanche minor, or Phelipanche aegyptiaca) were suspended in sterilized ultrapure water, and this was dispensed in an amount of 100 µL each (containing about 20 seeds) into a 96-well plate. The test compounds or control compounds (Comparison Compound 1 or synthetic Strigolactone (GR^24: Comparison Compound 2)) dissolved in DMSO were individually added thereto to a final concentration of these compounds of 10 nM to 1 fM (1 × 10^-8 to 1 × 10^-15 M), and allowed to stand in the dark for 2 days. The presence or absence of germination was observed using a microscope, and the germination rate (i.e., number of germinated seeds/total number of seeds) was measured. The higher the germination rate in the parasitic plant germination induction test, or the higher the germination rate at lower concentration, the higher the Striga germination inducing activity.
(§2) In Tables 1 to 6, the concentrations (10 nM, 1 nM, and 0.1 nM) represent compound concentrations. In Tables 1-6, the evaluation criteria for the compounds are as follows: • ++: germination rate of 20% or more • +: germination rate of 5% or more and less than 20% • -: germination rate of less than 5% Table 1

Orobanche minor = assay: Parasitic plant germination induction test (Orobanche minor seeds); details: in the dark for 2 days
Description: as §1, §2

Phelipanche aegyptiaca = assay: Parasitic plant germination induction test (Phelipanche aegyptiaca seeds); details: in the dark for 2 days
Description: as §1, §2

Compound | Germination rate 0.1 nM (Striga hermonthica) | Germination rate 1 nM (Striga hermonthica) | Germination rate 10 nM (Striga hermonthica) | Germination rate 0.1 nM (Orobanche minor; compound concentration 0.1 nM) | Germination rate 1 nM (Orobanche minor; compound concentration 1 nM) | Germination rate 10 nM (Orobanche minor; compound concentration 10 nM) | Germination rate 1 nM (Phelipanche aegyptiaca; compound concentration 1 nM) | Germination rate 10 nM (Phelipanche aegyptiaca; compound concentration 10 nM)
GR^24 [Comparison Compound 2, reference compound] | - (germination rate of less than 5%) | ++ (germination rate of 20% or more) | ++ (germination rate of 20% or more) | - (germination rate of less than 5%) | + (germination rate of 5% or more and less than 20%) | ++ (germination rate of 20% or more) | - (germination rate of less than 5%) | ++ (germination rate of 20% or more)
O=C1C=CC(OC(=O)N2CCN(S(=O)(=O)c3ccc([N+](=O)[O-])cc3)CC2)O1 (stereo not shown) [Compound 20] | - (germination rate of less than 5%) | ++ (germination rate of 20% or more) | ++ (germination rate of 20% or more) |  |  |  |  | 
Cc1ccc(S(=O)(=O)N2CCN(C(=O)OC3C=CC(=O)O3)CC2)cc1 (stereo not shown) [Compound 15] | - (germination rate of less than 5%) | + (germination rate of 5% or more and less than 20%) | ++ (germination rate of 20% or more) |  |  |  |  | 
COc1ccc(S(=O)(=O)N2CCN(C(=O)OC3C=CC(=O)O3)CC2)cc1 (stereo not shown) [Compound 10] | - (germination rate of less than 5%) | ++ (germination rate of 20% or more) | ++ (germination rate of 20% or more) |  |  |  |  | 
CCc1ccc(S(=O)(=O)N2CCN(C(=O)OC3C=CC(=O)O3)CC2)cc1 (stereo not shown) [Compound 16] |  | ++ (germination rate of 20% or more) | ++ (germination rate of 20% or more) |  |  |  |  | 
O=C1C=CC(OC(=O)N2CCN(S(=O)(=O)c3ccc(C(F)(F)F)cc3)CC2)O1 (stereo not shown) [Compound 18] | - (germination rate of less than 5%) | + (germination rate of 5% or more and less than 20%) | ++ (germination rate of 20% or more) |  |  |  |  | 
COc1ccc(S(=O)(=O)N2CCN(C(=O)OC3C=C(C)C(=O)O3)CC2)cc1 (stereo not shown) [Compound 2] | ++ (germination rate of 20% or more) | ++ (germination rate of 20% or more) | ++ (germination rate of 20% or more) |  |  |  |  | 
CCCCCOc1ccc(S(=O)(=O)N2CCN(C(=O)OC3C=C(C)C(=O)O3)CC2)cc1 (stereo not shown) [Compound 5] | ++ (germination rate of 20% or more) | ++ (germination rate of 20% or more) | ++ (germination rate of 20% or more) |  |  |  |  | 
CC(C)(C)c1ccccc1OCC1CN(C(=O)OC2C=CC(=O)O2)CCO1 (stereo not shown) [Reference Compound 30] | - (germination rate of less than 5%) | ++ (germination rate of 20% or more) | ++ (germination rate of 20% or more) |  |  |  |  | 
CCc1ccc(S(=O)(=O)N2CCN(C(=O)OC3C=C(C)C(=O)O3)CC2)cc1 (stereo not shown) [Compound 6] | ++ (germination rate of 20% or more) | ++ (germination rate of 20% or more) | ++ (germination rate of 20% or more) |  |  |  |  | 
CC1=CC(OC(=O)N2CCN(S(=O)(=O)c3cccc(Br)c3)CC2)OC1=O (stereo not shown) [Compound 9] | ++ (germination rate of 20% or more) | ++ (germination rate of 20% or more) | ++ (germination rate of 20% or more) |  |  |  |  | 
CCOc1ccc(S(=O)(=O)N2CCN(C(=O)OC3C=CC(=O)O3)CC2)cc1 (stereo not shown) [Compound 11] | + (germination rate of 5% or more and less than 20%) | ++ (germination rate of 20% or more) | ++ (germination rate of 20% or more) |  |  |  |  | 
CCCCCc1ccc(S(=O)(=O)N2CCN(C(=O)OC3C=C(C)C(=O)O3)CC2)cc1 (stereo not shown) [Compound 7] | ++ (germination rate of 20% or more) | ++ (germination rate of 20% or more) | ++ (germination rate of 20% or more) |  |  |  |  | 
O=C1C=CC(OC(=O)N2CCN(S(=O)(=O)c3cccc(Br)c3)CC2)O1 (stereo not shown) [Compound 19] | - (germination rate of less than 5%) | ++ (germination rate of 20% or more) | ++ (germination rate of 20% or more) |  |  |  |  | 
CCCCCOc1ccc(S(=O)(=O)N2CCN(C(=O)OC3C=CC(=O)O3)CC2)cc1 (stereo not shown) [Compound 14] | - (germination rate of less than 5%) | ++ (germination rate of 20% or more) | ++ (germination rate of 20% or more) |  |  |  |  | 
CC1=CC(OC(=O)N2CCN(S(=O)(=O)c3ccc(C(F)(F)F)cc3)CC2)OC1=O (stereo not shown) [Compound 8] | ++ (germination rate of 20% or more) | ++ (germination rate of 20% or more) | ++ (germination rate of 20% or more) |  |  |  |  | 
CCCOc1ccc(S(=O)(=O)N2CCN(C(=O)OC3C=CC(=O)O3)CC2)cc1 (stereo not shown) [Compound 12] | + (germination rate of 5% or more and less than 20%) | ++ (germination rate of 20% or more) | ++ (germination rate of 20% or more) |  |  |  |  | 
CCCCCc1ccc(S(=O)(=O)N2CCN(C(=O)OC3C=CC(=O)O3)CC2)cc1 (stereo not shown) [Compound 17] | + (germination rate of 5% or more and less than 20%) | + (germination rate of 5% or more and less than 20%) | ++ (germination rate of 20% or more) |  |  |  |  | 
